Literature values, collected in US12233088B2 (Alexion Pharmaceuticals, Inc., priority 2017, dated 2025).

Tested on: patients with Wilson's disease
Details: cited from earlier work; for patients with worsening of neurological symptoms on initiation of treatment: reported

SMILES | children with gastrointestinal adverse events (Polish cohort, Wiernicka et al.) | patients who discontinued treatment because of adverse events (retrospective study) | mean time to neurological worsening from initiation (Litwin et al.) | patients with early neurological worsening, n (%) (of 42 patients with neurological Wilson's disease, Litwin et al.) | patients with worsening of neurological symptoms on initiation of treatment
[Zn] [zinc] | 40% | 11% | – | – | –
CC(C)(S)[C@@H](N)C(=O)O [penicillamine, D-penicillamine] | – | – | 2.3 months | 12 (29%) | approximately 25%
NCCNCCNCCN [trientine] | – | – | – | – | approximately 25%
